Test results published in PubChem BioAssay AID2775 (Southern Research Specialized Biocontainment Screening …, 2010).
Active and inactive are the calls of the source. No rule for the calls is given here.

Assays:
[1] = antiviral efficacy and BSC cell toxicity – BSC cells, set 2, SV40 T antigen inhibitor project (AID 2775); conditions: BSC cells, SV40 CPE inhibition and viability; for viability: BSC cell viability, at 100 µM, stronger effect = lower value
[2] = system: BSC cells, SV40 CPE inhibition and viability; test: as above; conditions: for EC50: measured here: SV40 T antigen ATPase

| SMILES | viability [1] [%] | CC50 [2] | EC50 [2] [µM] | outcome [1] |
| --- | --- | --- | --- | --- |
| Cc1ccc(NC(=O)Cn2sc3ccccc3c2=O)cc1 | 22 | 57 µM (inactive) | 52.8 |  |
| O=C(Cn1sc2ccccc2c1=O)Nc1ccc(F)cc1 | 30.5 | 59 µM (inactive) | 55.5 |  |
| COc1cccc(NC(=O)Cn2sc3ccccc3c2=O)c1 | 52.5 | 57 µM (inactive) | 69.2 |  |
| O=C(Cn1sc2ccccc2c1=O)NCc1ccccc1 | 22.9 | 58 µM (inactive) | 31.8 |  |
| O=C(c1cccn1-c1ccccc1)c1cccn1-c1ccccc1 | 110 |  |  | inactive |
| O=C(Cn1sc2ccccc2c1=O)Nc1cccc(C(F)(F)F)c1 | 87.5 |  |  | inactive |
| COc1cccc(-n2nnnc2C(Cl)(Cl)c2nnnn2-c2cccc(OC)c2)c1 | 99.5 |  |  | inactive |
| O=C(Cn1sc2ccccc2c1=O)Nc1ccccc1 | 24 | 61 µM (inactive) | 35 |  |
| COc1ccc(NC(=O)Cn2sc3ccccc3c2=O)cc1 | 24.9 | 73 µM (inactive) | 35 |  |
| O=C(Cn1sc2ccccc2c1=O)Nc1ccc(Cl)cc1 | 83 |  |  | inactive |
